Data reported in ChEMBL document CHEMBL4376803, “Recent Advances in the Exploration of Therapeutic Analogues of Gramicidin S, an Old but Still Potent Antimicrobial Peptide” (J Med Chem, 2019).
In brackets after ≈: the same amount, converted by molar mass. Square brackets hold non-standard residues; d marks the D form. Peptide text beside a SMILES is read from it. Orn = NCCC[C@H](N)C(=O)O

What was measured:
Format in all cases: functional
Enterococcus faecalis [1] = assay: Antibacterial activity against Enterococcus faecalis ATCC 29212 after overnight incubation by microtiter dilution method
Enterococcus faecalis [2] = assay: Antibacterial activity against Enterococcus faecalis 1131 after 24 hrs by broth dilution method; conditions: Enterococcus faecalis, 1131, 24 h
Staphylococcus aureus [3] = assay: Antibacterial activity against Staphylococcus aureus 7323
Staphylococcus aureus [4] = assay: Antibacterial activity against Staphylococcus aureus ATCC 49975 after 16 to 20 hrs by broth microdilution method
[5] = tested on: Staphylococcus epidermidis; assay: Antibacterial activity against Staphylococcus epidermidis ATCC 12228 incubated for 24 hrs; conditions: ATCC 12228, 24 h
Escherichia coli [6] = assay: Antibacterial activity against Escherichia coli UB1005 after overnight incubation by microtiter dilution method
Candida albicans = assay: Antibacterial activity against Candida albicans after overnight incubation by microtiter dilution method
Staphylococcus aureus [7] = assay: Antibacterial activity against Staphylococcus aureus ATCC 6538 incubated for 48 hrs; conditions: ATCC 6538, 48 h
Staphylococcus aureus [8] = assay: Antibacterial activity against multidrug-resistant Staphylococcus aureus ATCC BAA-44 after overnight incubation by broth microdilution method
Staphylococcus aureus [9] = assay: Antibacterial activity against vancomycin-resistant Staphylococcus aureus Mu50/ATCC 700699 after overnight incubation by broth microdilution method
Staphylococcus aureus [10] = assay: Antibacterial activity against Staphylococcus aureus ATCC 29213
Staphylococcus aureus [11] = assay: Antibacterial activity against methicillin-resistant Staphylococcus aureus NT 1110301981H-T034-PVL+ incubated for 24 hrs
Bacillus subtilis [12] = assay: Antibacterial activity against Bacillus subtilis CIP 52.65 incubated for 48 hrs; conditions: CIP 52.65, 48 h
Staphylococcus aureus [13] = assay: Antibacterial activity against Staphylococcus aureus ATCC 25923 after 22 hrs by double dilution method; conditions: ATCC 25923, 22 h
[14] = tested on: Staphylococcus epidermidis; assay: Antibacterial activity against Staphylococcus epidermidis
Priestia megaterium [15] = assay: Antibacterial activity against Bacillus megaterium ATCC 19213 after overnight incubation by microplate dilution method
Pseudomonas aeruginosa [16] = assay: Antibacterial activity against Pseudomonas aeruginosa ATCC 27853 incubated for 24 hrs; conditions: ATCC 27853, 24 h
[17] = tested on: Staphylococcus epidermidis; assay: Antibacterial activity against Staphylococcus epidermidis ATCC 12228 after 22 hrs by double dilution method; conditions: ATCC 12228, 22 h
[18] = tested on: Staphylococcus epidermidis; assay: Antibacterial activity against Staphylococcus epidermidis ATCC 27626 after overnight incubation by broth microdilution method
Pseudomonas aeruginosa [19] = assay: Antibacterial activity against Pseudomonas aeruginosa ATCC 19582 after 24 hrs by broth dilution method; conditions: ATCC 19582, 24 h
Bacillus cereus = assay: Antibacterial activity against Bacillus cereus ATCC 11778 incubated for 24 hrs; conditions: ATCC 11778, 24 h
Pseudomonas aeruginosa [20] = assay: Antibacterial activity against Pseudomonas aeruginosa ATCC 9027 incubated for 48 hrs; conditions: ATCC 9027, 48 h
Bacillus subtilis [21] = assay: Antibacterial activity against Bacillus subtilis NBRC 3513 after overnight incubation by microplate dilution method
Staphylococcus aureus [22] = assay: Antibacterial activity against Staphylococcus aureus 209P incubated for 20 hrs by liquid microdilution method
Escherichia coli [23] = assay: Antibacterial activity against Escherichia coli ATCC 25922 after 24 hrs; conditions: ATCC 25922, 24 h
Escherichia coli [24] = assay: Antibacterial activity against Escherichia coli ATCC 25922 after 24 hrs by broth dilution method; conditions: ATCC 25922, 24 h
Pseudomonas aeruginosa [25] = assay: Antibacterial activity against Pseudomonas aeruginosa NBRC 3080
Klebsiella pneumoniae = assay: Antibacterial activity against Klebsiella pneumonia K6 ATCC 700603 after overnight incubation by broth microdilution method; conditions: 700603 K6
Enterococcus faecalis [26] = assay: Antibacterial activity against Enterococcus faecalis ATCC 29212 after 24 hrs; conditions: ATCC 29212, 24 h
Staphylococcus aureus [27] = assay: Antibacterial activity against Staphylococcus aureus NBRC 12732 after overnight incubation by microplate dilution method
Pseudomonas aeruginosa [28] = assay: Antibacterial activity against Pseudomonas aeruginosa H187 after overnight incubation by microtiter dilution method
Staphylococcus aureus [29] = assay: Antibacterial activity against Staphylococcus aureus
Escherichia coli [30] = assay: Antibacterial activity against Escherichia coli K-12 strain W3110 incubated for 20 hrs by liquid microdilution method; conditions: K-12 substr. W3110, 20 h
Pseudomonas aeruginosa [31] = assay: Antibacterial activity against Pseudomonas aeruginosa ATCC 27853 after 22 hrs by double dilution method; conditions: ATCC 27853, 22 h
Staphylococcus aureus [32] = assay: Antibacterial activity against Staphylococcus aureus ATCC 29213 after 24 hrs; conditions: ATCC 29213, 24 h
Pseudomonas aeruginosa [33] = assay: Antibacterial activity against Pseudomonas aeruginosa ATCC 27853
Staphylococcus xylosus = assay: Antibacterial activity against Staphylococcus xylosus
Escherichia coli [34] = assay: Antibacterial activity against Escherichia coli ATCC 25922
Bacillus subtilis [35] = assay: Antibacterial activity against Bacillus subtilis NBRC 3513
Escherichia coli [36] = assay: Antibacterial activity against Escherichia coli ATCC 25922 after 22 hrs by double dilution method; conditions: ATCC 25922, 22 h
Staphylococcus aureus [37] = assay: Antibacterial activity against Staphylococcus aureus NBRC 12732
Staphylococcus aureus [38] = assay: Antibacterial activity against methicillin-resistant Staphylococcus aureus ATCC 4330
Escherichia coli [39] = assay: Antibacterial activity against Escherichia coli ATCC 8739 incubated for 48 hrs; conditions: ATCC 8739, 48 h
Escherichia coli [40] = assay: Antibacterial activity against Escherichia coli NBRC 12734 after overnight incubation by microplate dilution method
Enterococcus faecalis [41] = assay: Antibacterial activity against Enterococcus faecalis ATCC 29212
Escherichia coli [42] = assay: Antibacterial activity against Escherichia coli K-12 ATCC 29181 after overnight incubation by broth microdilution method
Escherichia coli [43] = assay: Antibacterial activity against Escherichia coli NBRC 12734
Salmonella = assay: Antibacterial activity against Salmonella after overnight incubation by broth microdilution method
Staphylococcus aureus [44] = assay: Antibacterial activity against Staphylococcus aureus K147 after overnight incubation by microtiter dilution method
Priestia megaterium [45] = assay: Antibacterial activity against Bacillus megaterium ATCC 19213
Pseudomonas aeruginosa [46] = assay: Antibacterial activity against Pseudomonas aeruginosa NBRC 3080 after overnight incubation by microplate dilution method
Enterococcus faecalis [47] = assay: Antibacterial activity against Enterococcus faecalis ATCC 29212 after 22 hrs by double dilution method; conditions: ATCC 29212, 22 h

SMILES: CC(C)C[C@@H]1NC(=O)[C@H](CCCN)NC(=O)[C@H](C(C)C)NC(=O)[C@@H]2CCCN2C(=O)[C@@H](Cc2ccccc2)NC(=O)[C@H](CC(C)C)NC(=O)[C@H](CCCN)NC(=O)[C@H](C(C)C)NC(=O)[C@@H]2CCCN2C(=O)[C@@H](Cc2ccccc2)NC1=O (cyclo(V[Orn]L[dF]PV[Orn]L[dF]P))
- MIC (Enterococcus faecalis [1]): 2.8 µg/mL (≈ 2.45 µM)
- MIC (Enterococcus faecalis [2]): 8 µg/mL (≈ 7.01 µM)
- MIC (Staphylococcus aureus [3]): 8 µg/mL (≈ 7.01 µM)
- MIC (Staphylococcus aureus [4]): 2 µg/mL (≈ 1.75 µM)
- MIC [5]: 8 µg/mL (≈ 7.01 µM)
- MIC (Escherichia coli [6]): 6.2 µg/mL (≈ 5.43 µM)
- MIC (Candida albicans): 3.1 µg/mL (≈ 2.72 µM)
- MIC (Staphylococcus aureus [7]): 3.12 µg/mL (≈ 2.74 µM)
- MIC (Staphylococcus aureus [8]): 1.8 µg/mL (≈ 1.58 µM)
- MIC (Staphylococcus aureus [9]): 3.6 µg/mL (≈ 3.15 µM)
- MIC (Staphylococcus aureus [10]): 4 µg/mL (≈ 3.5 µM)
- MIC (Staphylococcus aureus [11]): 8 µg/mL (≈ 7.01 µM)
- MIC (Bacillus subtilis [12]): 1.56 µg/mL (≈ 1.37 µM)
- MIC (Staphylococcus aureus [13]): 4 µg/mL (≈ 3.5 µM)
- MIC [14]: 2 µg/mL (≈ 1.75 µM)
- MIC (Priestia megaterium [15]): 3.13 µg/mL (≈ 2.74 µM)
- MIC (Pseudomonas aeruginosa [16]): 64 µg/mL (≈ 56.1 µM)
- MIC [17]: 2 µg/mL (≈ 1.75 µM)
- MIC [18]: 1.8 µg/mL (≈ 1.58 µM)
- MIC (Pseudomonas aeruginosa [19]): 8 µg/mL (≈ 7.01 µM)
- MIC (Bacillus cereus): 8 µg/mL (≈ 7.01 µM)
- MIC (Pseudomonas aeruginosa [20]): 50 µg/mL (≈ 43.8 µM)
- MIC (Bacillus subtilis [21]): 3.13 µg/mL (≈ 2.74 µM)
- MIC (Staphylococcus aureus [22]): 4 µg/mL (≈ 3.5 µM)
- MIC (Escherichia coli [23]): 32 µg/mL (≈ 28 µM)
- MIC (Escherichia coli [24]): 32 µg/mL (≈ 28 µM)
- MIC (Pseudomonas aeruginosa [25]): 25 µg/mL (≈ 21.9 µM)
- MIC (Klebsiella pneumoniae): 3.6 µg/mL (≈ 3.15 µM)
- MIC (Enterococcus faecalis [26]): 8 µg/mL (≈ 7.01 µM)
- MIC (Staphylococcus aureus [27]): 3.13 µg/mL (≈ 2.74 µM)
- MIC (Pseudomonas aeruginosa [28]): 20 µg/mL (≈ 17.5 µM)
- MIC (Staphylococcus aureus [29]): 2 µg/mL (≈ 1.75 µM)
- MIC (Escherichia coli [30]): 32 µg/mL (≈ 28 µM)
- MIC (Pseudomonas aeruginosa [31]): 64 µg/mL (≈ 56.1 µM)
- MIC (Staphylococcus aureus [32]): 8 µg/mL (≈ 7.01 µM)
- MIC (Pseudomonas aeruginosa [33]): 64 µg/mL (≈ 56.1 µM)
- MIC (Staphylococcus xylosus): 1 µg/mL (≈ 0.876 µM)
- MIC (Escherichia coli [34]): 32 µg/mL (≈ 28 µM)
- MIC (Bacillus subtilis [35]): 3.13 µg/mL (≈ 2.74 µM)
- MIC (Escherichia coli [36]): 32 µg/mL (≈ 28 µM)
- MIC (Staphylococcus aureus [37]): 3.13 µg/mL (≈ 2.74 µM)
- MIC (Staphylococcus aureus [38]): 8 µg/mL (≈ 7.01 µM)
- MIC (Escherichia coli [39]): 12.5 µg/mL (≈ 11 µM)
- MIC (Escherichia coli [40]): 25 µg/mL (≈ 21.9 µM)
- MIC (Enterococcus faecalis [41]): 8 µg/mL (≈ 7.01 µM)
- MIC (Escherichia coli [42]): 28 µg/mL (≈ 24.5 µM)
- MIC (Escherichia coli [43]): 25 µg/mL (≈ 21.9 µM)
- MIC (Salmonella): 28 µg/mL (≈ 24.5 µM)
- MIC (Staphylococcus aureus [44]): 1.5 µg/mL (≈ 1.31 µM)
- MIC (Priestia megaterium [45]): 3.13 µg/mL (≈ 2.74 µM)
- MIC (Pseudomonas aeruginosa [46]): 25 µg/mL (≈ 21.9 µM)
- MIC (Enterococcus faecalis [47]): 8 µg/mL (≈ 7.01 µM)
